Data on seven molecules can be found in PubChem BioAssay AID1963864 (Molecular Pharmacology Branch, DTP, NCI, 2024).

The assay relates to KRAS PDC multicell spheroid viability. Description: Anticancer human tumor 521955-158-R6-J3-PDC patient-derived pancreatic carcinoma cell line growth inhibition [KRAS2]. The following applies: for viability, T/C: stronger effect = lower value. The text has this:
Multicellular complex tumor spheroid response to RAS pathway inhibitors in combination with a targeted agents in patient-derived cell lines with oncogenic KRAS variants from multiple cancer types
A high-throughput screen of multi-cell type tumor spheroids was designed to identify active combinations of targeted small molecules and KRAS pathway inhibitors. Complex spheroids include a stromal component modeled by human endothelial cells (HUVEC) and fibroblasts modeled by human mesenchymal stem cells (MSCs). The concentration ranges selected for each drug and investigational agent were based upon clinically achievable concentrations if the clinical Cmax of the agent was known.
Compounds. The drugs and investigational agents: BI-3406 (NSC825286), BAY-293 (NSC824723), batoprotafib (TNO155; NSC825523), sotorasib (AMG 510; NSC818433), MRTX1257 (NSC819558), elimusertib (BAY 1895344; NSC800525), molibresib (GSK525762; NSC774829), temuterkib (LY3214996; NSC803410), venetoclax (NSC766270), alisertib (NSC759677), olaparib (NSC753686), talazoparib (NSC767125), erdafitinib (NSC781556), ipatasertib (NSC767898), cabozantinib (NSC761068), nintedanib (NSC756659), abemaciclib (NSC768073), docetaxel (NSC628503), trametinib (NSC758246), and sapanisertib (NSC764658) were obtained from the National Cancer Institute (NCI) Developmental Therapeutics Program Chemical Repository. The FDA-approved anticancer drug set is available from the Developmental Therapeutics Program. […] The stock solutions were prepared in dimethyl sulfoxide (DMSO, Sigma-Aldrich, St. Louis, MO, cat. D2650) at 800-fold the tested concentration and stored at -70 degrees C prior to their use. All drugs and investigational agents were tested over a range starting from a high concentration at or near the clinical Cmax and decreasing in half-log increments. If the clinical Cmax for an agent had not been determined, the highest concentration tested was 10 microM.
Cell Culture. All cells were maintained in an incubator at 37 degrees C and 5% CO2 with 95% humidity. The PDC lines were cultured according to standard operating procedures established by the NCI PDMR (https://pdmr.cancer.gov/sops/default.htm). Briefly, all PDCs were thawed and cultured in Matrigel-coated flasks prepared with a working solution of 1X Ham's F-12 nutrient mix, without supplementation (Invitrogen, Waltham, MA, cat. 11765054), 100 U/mL penicillin-streptomycin (Invitrogen, cat. 15140122), and 2.5% Matrigel (Corning Inc., Corning, NY, cat. 354248) for the first three passages. All PDCs were cultured in complete DMEM/F-12 media containing advanced DMEM/F-12 (Invitrogen, cat. 12634028), 4.9% defined fetal bovine serum, heat inactivated (HyClone Laboratories Inc., Logan, UT, cat. SH30070.03HI), 389 ng/mL hydrocortisone (Sigma-Aldrich, cat. H4001), 9.7 ng/mL human EGF recombinant protein (Invitrogen, cat. PHG0313), 23.4 microg/mL adenine (Sigma-Aldrich, cat. A2786), 97.3 U/mL penicillin-streptomycin (Invitrogen, cat. 15140122), 1.9 mM L-glutamine (Invitrogen, cat. 25030081), and 9.7 microM Y-27632 dihydrochloride (Tocris Bioscience, Bristol, United Kingdom, cat. 1254). The PDCs were cultured in complete DMEM/F12 media without 9.7 microM Y-27632 dihydrochloride for at least two passages prior to the screen. The established cell line HOP-62 was cultured in RPMI 1640 medium, HEPES (Invitrogen, cat. 22400105) with 10% defined fetal bovine serum (HyClone Laboratories Inc., cat. SH30070.03) and 2 mM L-glutamine (Invitrogen, cat. 25030081). The pooled donor HUVEC were cultured in endothelial cell growth medium 2 (PromoCell, Heidelberg, Germany, cat. C-22011) and the hMSC were cultured in mesenchymal stem cell growth medium 2 (PromoCell, cat. C-28009). For all experiments, HUVEC and hMSC were used at passages </=5, while the malignant cell lines were used at passages </=15. […]

The mark [1] stands for this setting: compound alone, run of 08/26/2021.
Setting [2] is: compound alone, run of 09/02/2021.
The mark [3] stands for this setting: curve of first compound, second compound 0.1 µM.
[4] abbreviates: curve of first compound, second compound 0.316 µM.
[5] abbreviates: curve of first compound, second compound 1 µM.
The mark [6] stands for this setting: curve of first compound, second compound 3.16 µM.
The mark [7] stands for this setting: curve of first compound, second compound 10 µM.
The mark [8] stands for this setting: second compound 0.1 µM, first compound 0.01 µM.
The mark [9] stands for this setting: second compound 0.1 µM, first compound 0.0316 µM.
Setting [10] is: second compound 0.1 µM, first compound 0.1 µM.
Where [11] appears, read: second compound 0.316 µM, first compound 0.01 µM.
Setting [12] is: second compound 0.316 µM, first compound 0.0316 µM.
Setting [13] is: second compound 0.316 µM, first compound 0.1 µM.
Setting [14] is: second compound 1 µM, first compound 0.01 µM.
[15] abbreviates: second compound 1 µM, first compound 0.0316 µM.
The mark [16] stands for this setting: second compound 1 µM, first compound 0.1 µM.
The mark [17] stands for this setting: second compound 3.16 µM, first compound 0.01 µM.
[18] abbreviates: second compound 3.16 µM, first compound 0.0316 µM.
Setting [19] is: second compound 3.16 µM, first compound 0.1 µM.
Setting [20] is: second compound 10 µM, first compound 0.01 µM.
The mark [21] stands for this setting: second compound 10 µM, first compound 0.0316 µM.
Where [22] appears, read: second compound 10 µM, first compound 0.1 µM.

A value given as a limit tells only on which side of the number the result lay.
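Also: drug exposure lasted seven days.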
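For viability, T/C in this document: 100% = DMSO vehicle wells and lower means fewer viable cells.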

Take `C=CC(=O)N1CCN(c2nc(=O)n(-c3c(C)ccnc3C(C)C)c3nc(-c4c(O)cccc4F)c(F)cc23)C(C)C1` (centres undefined): the viability, T/C reads like this: (compound 0.1 µM) 94.8% [middle of 16 runs]; (compound 0.316 µM) 97.2% [middle of 16 runs]. For the same molecule, the IC50 (compound alone, run of 08/19/2021) was more than 10 µM; the IC50 under setting [1] was more than 10 µM; the IC50 under setting [2] is more than 10 µM.

In the case of `CNCc1ccccc1-c1csc(C(C)Nc2nc(C)nc3cc(OC)c(OC)cc23)c1` (centres undefined), the viability, T/C was 84.1% [middle of 16 runs] (compound 0.1 µM), 79% [middle of 16 runs] (compound 0.316 µM) and 0.23% [middle of 15 runs] (compound 10 µM). In addition, the IC50 is 1.48 µM [middle of 5 runs] under setting [1] and 1.4 µM [middle of 5 runs] under setting [2].

Consider `COC(=O)c1ccc2c(C(=Nc3ccc(N(C)C(=O)CN4CCN(C)CC4)cc3)c3ccccc3)c(O)[nH]c2c1`, for which the viability, T/C was 96.5% [middle of 5 runs] (compound 0.0316 µM), 109% [middle of 5 runs] (compound 0.1 µM) and 0.34% [middle of 5 runs] (compound 10 µM). The IC50 (curve of compound) is 3.54 µM [middle of 5 runs].

In the case of `COc1cc2nc(C)nc(NC(C)c3cc(N)cc(C(F)(F)F)c3)c2cc1OC1CCOC1` (centres undefined), the viability, T/C is 86.7% [middle of 17 runs] (compound 0.1 µM) and 86.7% [middle of 17 runs] (compound 0.316 µM). For the same molecule, the IC50 under setting [1] was 6.52 µM [middle of 5 runs].

In the case of `COc1cc2nccc(Oc3ccc(NC(=O)C4(C(=O)Nc5ccc(F)cc5)CC4)cc3)c2cc1OC`, the viability, T/C (compound 0.316 µM) is 95.7% [middle of 5 runs]. In addition, the IC50 (curve of compound) was more than 10 µM.

In the case of `CC(=O)OC12COC1CC(O)C1(C)C(=O)C(O)C3=C(C)C(OC(=O)C(O)C(NC(=O)OC(C)(C)C)c4ccccc4)CC(O)(C(OC(=O)c4ccccc4)C21)C3(C)C` (centres undefined) + C=CC(=O)N1CCN(c2nc(=O)n(-c3c(C)ccnc3C(C)C)c3nc(-c4c(O)cccc4F)c(F)cc23)C(C)C1, the IC50 under setting [3] was more than 3.16 µM; the IC50 under setting [4] is more than 3.16 µM; the IC50 under setting [5] was more than 3.16 µM; the IC50 under setting [6] is more than 3.16 µM; the IC50 under setting [7] was more than 3.16 µM. Further, the viability, T/C is 86.2% under setting [8]; 74.1% under setting [9]; 77.7% under setting [10]; 94.7% (second compound 0.1 µM, first compound 0.316 µM); 94.3% (second compound 0.1 µM, first compound 1 µM); 114% (second compound 0.1 µM, first compound 3.16 µM). For the same molecule, the viability, T/C under setting [11] is 86%; the viability, T/C under setting [12] was 82.5%; the viability, T/C under setting [13] was 74.4%; the viability, T/C (second compound 0.316 µM, first compound 0.316 µM) was 77.1%; the viability, T/C (second compound 0.316 µM, first compound 1 µM) was 88.4%; the viability, T/C (second compound 0.316 µM, first compound 3.16 µM) is 113%. The viability, T/C was 90.6% under setting [14]; 87% under setting [15]; 81.4% under setting [16]; 62.5% (second compound 1 µM, first compound 0.316 µM); 65.6% (second compound 1 µM, first compound 1 µM); 69% (second compound 1 µM, first compound 3.16 µM). Further, the viability, T/C under setting [17] was 97.3%; the viability, T/C under setting [18] is 88.1%; the viability, T/C under setting [19] is 90.3%; the viability, T/C (second compound 3.16 µM, first compound 0.316 µM) was 101%; the viability, T/C (second compound 3.16 µM, first compound 1 µM) is 98.4%; the viability, T/C (second compound 3.16 µM, first compound 3.16 µM) is 104%. Moreover, the viability, T/C by setting is: under setting [20], 98.9%; under setting [21], 92.2%; under setting [22], 90.1%; (second compound 10 µM, first compound 0.316 µM) 73.2%; (second compound 10 µM, first compound 1 µM) 86.8%; (second compound 10 µM, first compound 3.16 µM) 76.8%.

As to `CN(C)C/C=C/C(=O)Nc1cc2c(Nc3ccc(F)c(Cl)c3)ncnc2cc1O[C@H]1CCOC1` + C=CC(=O)N1CCN(c2nc(=O)n(-c3c(C)ccnc3C(C)C)c3nc(-c4c(O)cccc4F)c(F)cc23)C(C)C1, the IC50 reads like this: under setting [3], more than 0.1 µM; under setting [4], more than 0.1 µM; under setting [5], more than 0.1 µM; under setting [6], more than 0.1 µM; under setting [7], more than 0.1 µM. In addition, the viability, T/C by setting is: (second compound 0.1 µM, first compound 0.000316 µM) 101%; (second compound 0.1 µM, first compound 0.001 µM) 92.9%; (second compound 0.1 µM, first compound 0.00316 µM) 85.4%; under setting [8], 72.8%; under setting [9], 68.6%; under setting [10], 66.6%. The viability, T/C (second compound 0.316 µM, first compound 0.000316 µM) is 119%; the viability, T/C (second compound 0.316 µM, first compound 0.001 µM) is 112%; the viability, T/C (second compound 0.316 µM, first compound 0.00316 µM) is 79.9%; the viability, T/C under setting [11] is 81.7%; the viability, T/C under setting [12] is 71.2%; the viability, T/C under setting [13] was 66.3%. In addition, the viability, T/C by setting is: (second compound 1 µM, first compound 0.000316 µM) 113%; (second compound 1 µM, first compound 0.001 µM) 92.2%; (second compound 1 µM, first compound 0.00316 µM) 102%; under setting [14], 79.8%; under setting [15], 67.6%; under setting [16], 69.4%. Moreover, the viability, T/C is 112% (second compound 3.16 µM, first compound 0.000316 µM); 97% (second compound 3.16 µM, first compound 0.001 µM); 83.7% (second compound 3.16 µM, first compound 0.00316 µM); 79% under setting [17]; 69.6% under setting [18]; 69.7% under setting [19]. The viability, T/C was 73.2% (second compound 10 µM, first compound 0.000316 µM); 109% (second compound 10 µM, first compound 0.001 µM); 66.7% (second compound 10 µM, first compound 0.00316 µM); 62.3% under setting [20]; 58.5% under setting [21]; 65.3% under setting [22].
